{
  "source": "patent US20230226003A1",
  "about": "“NATURAL ANTIBACTERIAL AND ANTIVIRAL BIOLOGICAL COMPOSITIONS, COMPOUNDS, METHOD FOR OBTAINING SAME, AND USE THEREOF” (BEEOTEC HOLDING S/A, priority 2020, published 2023)",
  "tested_on": "microorganisms on surfaces of a surgical center",
  "test": "Efficiency of disinfectants: reduction of microbial counts on surgical center surfaces",
  "settings": "post- vs pre-disinfection; same letter = no significant difference (p < 0.05)",
  "data": [
    {"smiles": "OCl", "note": "[0.5% sodium hypochlorite, sodium hypochlorite]", "values": [
      {"measurement": "Reduction of counts microbial (%)", "value": 61, "unit": "b %"}
    ]},
    {"smiles": "CC(C)O", "note": "[70% isopropanol, isopropyl alcohol]", "values": [
      {"measurement": "Reduction of counts microbial (%)", "value": 87, "unit": "a %"}
    ]}
  ]
}
